The results in this text go back to US8138148B2, “GDNF derived peptides” (Copenhagen University, priority 2005, dated 2012).

Test [1] concerns hippocampal neurons. As to the kind of experiment: Neurite outgrowth in co-cultures with pharmacological inhibitors (PP2, SU5402). The test is classed as cell-based, rat. The following applies: neurons on control or NCAM-expressing fibroblasts; for effect of inhibitor on GDNF-induced neurite outgrowth: 10 ng/ml GDNF, PP2 0.2-25 μM, SU5402 1-25 μM; for effect of inhibitor on G2-induced neurite outgrowth: 3 μg/ml G2, PP2 0.2-100 μM, SU5402 1-100 μM, 24 hours. The protocol:
(§1) In monocultures, neurons are grown directly on plastic and the only neuritogenic stimulus is the one presented by the added substance. In co-cultures, neurons are grown on top of a confluent monolayer of fibroblasts expressing NCAM-140 (LBN110) or NCAM-negative control fibroblasts (LVN212). NCAM on the neurons interact with NCAM on LBN110 cells thereby stimulating neurite outgrowth from the neurons. This system thus permits the study of NCAM-NCAM interactions and interactions between NCAM and other molecules.
(§2) For cocultures, L-cells were seeded in 8-well LabTek® Permanox Chamber slides at a density of 100.000 cells/well, except for transfection experiments where cells were seeded in 4-well LabTek® Permanox Chamber slides at a density of 200.000 cells/well. L-cells were grown for 24 hours in DMEM supplemented with 10% (v/v) FCS, 1% (v/v) glutamax, 100 U/ml penicillin, 100 μg/ml streptomycin, 2.5 μg/ml fungizone, and 567 μg/ml neomycin (G418), followed by washing twice in neurobasal medium with supplements before primary hippocampal neurons were seeded at a density of 7.000 cells/well in 8-well slides or 20.000 cells/well in 4-well slides.
To evaluate the involvement different intracellular signal transduction pathways pharmacological inhibitors, in particular the FGFR inhibitor SU5402 and Fyn-kinase inhibitor PP2, were diluted to the appropriate concentrations and added to the neurons immediately after seeding. After 10 minutes GDNF, GDNFp1 or medium (controls) was added and cells were incubated for 24 hours.
(§3) Neurite outgrowth experiments were terminated after the stated time by fixating the cells. To visualize neurons and their neurites, immunostaining of GAP-43 was performed. This staining is specific for neurons. Transfected cells and their neurites should be visible without immunostaining due to the fluorescence emitted by GFP. […] GFP is a cytoplasmic protein, and since thin neurites only contain a small volume of cytoplasm, GFP is only found in small amounts in most neurites. Therefore, a double-staining protocol, where cells were immunostained against GFP and GAP-43, was adopted. This protocol allowed the identification of transfected cells on the basis of GFP-staining in combination with visualization of neurites based on GAP-43-staining.
Without prior removal of the medium 300 μl/well (8-well slides) or 500 μl/well (4-well slides) of a PBS solution containing 0.4 mM CaCl2, 0.05 M sucrose and 8% (v/v) formaldehyde was added to the cultures for 20 minutes. Cells were then washed 10 minutes in PBS followed by washing in PBS with 1% (w/v) BSA for 20 minutes, after which cells were incubated with primary antibodies overnight at 4° C. […]

For another test, the system named is GFRα receptors. As to the kind of experiment: Surface plasmon resonance (SPR) binding analysis, GFRα receptors. The settings on record: immobilized receptor protein, 25° C., PBS pH 7.4. The protocol: Analysis of binding was performed employing a BIAcoreX instrument (Biosensor AB, Uppsala, Sweden) at 25° C. using 10 mM pH 7.4 sodium phosphate containing 150 mM NaCl as running buffer (phosphate-buffered saline, PBS). The flow-rate was 5 μl/min. Data were analysed by non-linear curve-fitting using the manufacturer's software. The receptor proteins, e.g. NCAM Ig1-Ig2 and GFR proteins, were immobilized on a sensor chip CM5 using an amine coupling kit (Biosensor AB) as follows: the chip was activated by 20 μl activation solution; the protein was immobilized using 12 μl 20 μg/ml protein in 10 mM sodium phosphate buffer pH 6.0; the chip was blocked by 35 μl blocking solution. Various peptides at the indicated concentrations were injected into the sensor chip. The curve corresponding to the difference between binding to receptor and a blank chip was used for analysis.
For orientation: Surface plasmon resonance follows binding to a sensor surface in real time, without labels.

Test [2] deals with cerebellar granule neurons (CGN). As to the kind of experiment: Survival assay, cerebellar granule neurons (apoptosis induced by low KCl). The test is classed as cell-based, Wistar rat. The settings on record: 5 mM KCl, two days after induction of apoptosis. Here is the method: Cerebellar granule neurons (CGN) were prepared from postnatal day seven Wistar rats largely as previously described by Schousboe et al. (1989). Cerebellar tissue was dissected in modified Krebs-Ringer solution kept on ice, and treated as described for the hippocampal neurons above. All cell cultures were incubated at 37° C. in a humidified atmosphere containing 5% CO2. All animals were handled in accordance with the national guidelines for animal welfare.
Primary cultures of CGN were plated at a density of 100,000 cells/cm^2 on poly-L-lysine coated 8-well permanox slides in Neurobasal-A medium (Gibco, BRL) supplemented with 2% (v/v) B27, 0.5% (v/v) glutamax, 100 U/ml penicillin, 100 μg/ml streptomycin and KCl, making the final concentration of KCl in the medium 40 mM. 24 hours after plating, cytosine-β-D-arabinofuranoside (Ara-C; Sigma-Aldrich) was added to a final concentration of 10 μM to avoid proliferation of glial cells, after which the neurons were allowed to differentiate for further six days at 37° C. Apoptotic cell death was induced by washing twice and changing the medium to Basal Medium Eagle (BME; Gibco BRL) supplemented with 1% (v/v) glutamine, 100 U/ml penicillin and 100 μg/ml streptomycin, 3.5 g D-glucose/l and 1% (v/v) sodium pyruvate (Gibco BRL) together with various concentrations of peptide. Thereby the concentration of potassium in the cultures was reduced to 5 mM KCl (D'Mello et al., 1993). Two days after induction of apoptosis, the cells were fixed with 4% (v/v) formaldehyde and stained with Hoechst 33258 for 25 minutes as described by Kruman et al. (1997). Images of 1000-1500 neurons were randomly recorded for each group in each experiment using computer assisted fluorescence microscopy as described for the hippocampal neurite outgrowth assay. Nuclei from dead and live neurons were counted using the software package Prima developed at the Protein Laboratory, and the fraction of live neurons relative to the total number of neurons was estimated.

In test [3] the test system is primary hippocampal neurons. As to the kind of experiment: Neurite outgrowth assay, monocultures of primary hippocampal neurons. The test is classed as cell-based, rat. The following applies: monoculture, stimulated 24 hours; GDNF 1-100 ng/ml, peptides 0.1-27 μg/ml; versus medium alone. Here is the method: (§4) Two different versions of the neurite outgrowth assay were used in this study, monocultures and co-cultures.
as §1
(§5) For all experiments cells were grown in neurobasal medium with supplements as described above in a final volume of 300 μl/well in 8-well LabTek® Permanox Chamber slides or 500 μl/well in 4-well LabTek® Permanox Chamber slides.
For monocultures, primary hippocampal neurons were seeded in 8-well LabTek® Permanox Chamber slides at a density of 10,000 cells/well.
(§6) To evaluate the effect peptides on neurite outgrowth, GDNF and the peptides, G1, G2, G3, A1, A2, A3, N1, N2 and N3 were diluted to the appropriate concentrations and added to the neurons approximately 10 minutes after seeding. Medium alone was added to controls, and cells were incubated for 24 hours.
as §3, with “GAP-43-staining. […]” for “GAP-43-staining.”

The subject of test [4] is hippocampal neurons. As to the kind of experiment: Neurite outgrowth assay, co-cultures of hippocampal neurons on control fibroblasts or NCAM-expressing fibroblasts. The test is classed as cell-based, rat. The settings on record: 24 hours. The protocol: as §4, §1, §5, §2, §6, §3
Without prior removal of the medium 300 μl/well (8-well slides) or 500 μl/well (4-well slides) of a PBS solution containing 0.4 mM CaCl2, 0.05 M sucrose and 8% (v/v) formaldehyde was added to the cultures for 20 minutes. Cells were then washed 10 minutes in PBS followed by washing in PBS with 1% (w/v) BSA for 20 minutes, after which cells were incubated with primary antibodies overnight at 4° C.
Rabbit anti-rat GAP-43 antibodies were diluted 1:1000 for staining of untransfected cells and 1:2000 for staining of transfected cells. Mouse anti-GFP antibodies were diluted 1:1000. Antibodies were diluted in a PBS solution containing 7% (v/v) FCS to block unspecific binding, 50 mM glycine to block formaldehyde used for fixation, 0.2% (v/v) saponin to permeabilize cells, and 0.02% (v/v) NaN3 to preserve antibodies for later use.
The next day cells were washed 10 minutes in PBS followed by washing in PBS with 1% (w/v) BSA for 20 minutes. Cells were then incubated with secondary antibodies diluted in PBS with 1% (w/v) BSA for one hour at room temperature. Goat anti-rabbit IgG antibodies conjugated to Alexa 488 were diluted 1:1000 for untransfected cells and 1:2000 for transfected cells. Goat anti-mouse IgG antibodies conjugated to Alexa 546 were diluted 1:1000. Finally cells were washed 3×7 minutes in PBS and mounted with fluorescent mounting medium. […]

For `CC(C)(C)n1nc(-c2ccc(Cl)cc2)c2c(N)ncnc21` [PP2], in the test on hippocampal neurons [1], the “effect of inhibitor on GDNF-induced neurite outgrowth” value is on record as “decreases GDNF-induced neurite outgrowth” and the “effect of inhibitor on G2-induced neurite outgrowth” value is on record as “decreases G2-induced neurite outgrowth”.

Turning to `Cc1c[nH]c(/C=C2\C(=O)Nc3ccccc32)c1CCC(=O)O` [SU5402], in the test with hippocampal neurons [1], the “effect of inhibitor on GDNF-induced neurite outgrowth” value was “decreases GDNF-induced neurite outgrowth” and the “effect of inhibitor on G2-induced neurite outgrowth” value is given as “decreases G2-induced neurite outgrowth”.

Turning to “ARVYDLGLRRLRQRR (listed as Homo sapiens) [N2, neurturin fragment]”, the “binding to the GFRα receptors (SPR)” value with GFRα receptors is “binding”.

Regarding “DEVSFLDAHSRY (listed as Homo sapiens) [NeuGi, neurturin-derived peptide]”, the “binding to the GFRα receptors (SPR)” value with GFRα receptors is “binding”. Further, the “survival of cerebellar granule neurons (CGN)” value (from here on “survival”) in test [2] was “increases the survival of CGNs”.

On to “DLSFLDDNLVY (listed as Homo sapiens) [G3, GDNF fragment]”, for which the “neurite outgrowth, overall effect of treatment (one-way ANOVA)” value in test [3] was “do not induce neurite outgrowth”. For the same compound, the “neurite outgrowth, overall effect of treatment, neurons grown on NCAM-expressing fibroblasts” value in the test with hippocampal neurons [4] (co-culture on NCAM-expressing fibroblasts, GDNF 1-100 ng/ml, peptides 0.1-81 μg/ml) was “overall statistical significant effect”. Besides, in the test on hippocampal neurons [4] (co-culture on control fibroblasts, GDNF 1-100 ng/ml, peptides 0.1-81 μg/ml), the “neurite outgrowth, overall effect of treatment, neurons grown on control fibroblasts” value is reported as “no overall significant effect”. Further, the “difference between neurite outgrowth on control fibroblasts and on NCAM-expressing fibroblasts across concentrations (one-way ANOVA)” value with hippocampal neurons [4] (difference per concentration, expressed as percentage of control) was “mean differences are not all the same”. Further, the “direction of the effect on NCAM-induced neurite outgrowth” value in the test with hippocampal neurons [4] (neurons on NCAM-expressing fibroblasts, 0.3-81 μg/ml) was “inhibitory at higher concentrations”.

Take “EAVSFMDVNSTWR (listed as Homo sapiens) [ArtGi, artemin-derived peptide]”: in the test on GFRα receptors, the “binding to the GFRα receptors (SPR)” value is “binding”. Moreover, in test [2], the “survival” value is on record as “increases the survival of CGNs”.

As for “RSPHDLSLASLLGAG (listed as Homo sapiens) [A2, artemin fragment]”, the “binding to the GFRα receptors (SPR)” value in the test on GFRα receptors is given as “binding”. Moreover, the “survival” value in test [2] was “increases the survival of CGNs”.

With “VPVRALGLGHRSDEL (listed as Homo sapiens) [A1, artemin fragment]”, the “survival” value in test [2] was “increases the survival of CGNs”.

As for “VRVSELGLGYASDET (listed as Homo sapiens) [N1, neurturin fragment]”, in the test on GFRα receptors, the “binding to the GFRα receptors (SPR)” value is “binding”. In test [2], the “survival” value is reported as “increases the survival of CGNs”.
